Laboratory results as given in patent publication US4783461A, “3,6-disubstituted triazolo [3,4-A]phthalazine derivatives” (Gruppo Lepetit S.p.A., priority 1983, dated 1988).

Assays:
[1] = biological target: rat brain benzodiazepine receptors (3H-diazepam receptor); assay: benzodiazepine-receptor binding test in vitro (inhibition of specific 3H-diazepam binding to rat brain membranes); details: 3H-diazepam displacement, read-out: inhibition constant Ki (Ki = IC50/(1+C/KD)) for specific 3H-diazepam binding
Excerpt: The pharmacological properties of the compounds of the present invention were first investigated by submitting some representative members of this class to the benzodiazepine-receptor binding-test in vitro.

rats = assay: conflict test in rats (punished responding, Vogel method as modified by Lippa); format: in vivo; details: Rattus norvegicus, ip, 1 h, i.p., tested 60 minutes after administration, read-out: minimal effective dose (MED) significantly increasing the number of shocks versus controls
Method: The ability of the compounds of the present invention to increase punished responding in animals in a conflict situation, a procedure with high validity for predicting the anxiolytic effect of drugs, was assessed by testing these compounds in rats according to the method described by J. R. Vogel, B. Beer, E. D. Clody in Psychopharmacologia 21, 1-7 (1971) as modified by A. S. Lippa et al., in "Anxiolytics, Industrial Pharmacology",Vol. 3, Futura Publishing, 1979, pages 41-81. Briefly, rats are deprived for water for 48 hours and deprived of food for 20 hours prior to testing. Sixty minutes after administration of the test compound each rat is placed in an especially equipped cage. A glucose solution is available from a tap located in the rear of the cage. A constant pulsating shocking current is connected between the grid floor and the tap. Each rat is allowed 20 seconds of non-shocked drinking, then cycles of 5 seconds shock-off and 5 seconds shock-on began. During the shock-on period each lick on the tap is accompanied by shock. The number of shocks received by each animal is recorded and minimal effective doses are determined.

Row | SMILES | Ki [1] [nM] | minimal effective dose (rats) [mg/kg]
1 | COCCOCc1nn2c(-c3ccc(OC)cc3)nnc2c2ccccc12 [Example 1, 6-[(2-Methoxyethoxy)methyl]-3-(4-methoxyphenyl)-1,2,4-triazolo[3,4-a]phthalazine] | 20 | 5
2 | COc1ccc(-c2nnc3c4ccccc4c(CN4CCCC4)nn23)cc1 [Example 2, 3-(4-Methoxyphenyl)-6-[(1-pyrrolidinyl)methyl]-1,2,4-triazolo[3,4-a]phthalazine] | 150 | –
